Results taken from DBAASP.
Values after ≈ are worked out from the molar mass of the structure shown. One block for each molecule: values may come before it.

Legend:
Assay in all cases: ≥ marks a high value that may be exact or a test limit, other limits are often not marked, values filed in µg/mL are converted to µM
[1] = tested on: Staphylococcus aureus NBRC 12732
[2] = tested on: Escherichia coli NBRC 14237
[3] = tested on: Pseudomonas aeruginosa NBRC 12582
[4] = tested on: Staphylococcus epidermidis NBRC 12993
[5] = tested on: Escherichia coli NBRC 3972
[6] = tested on: Micrococcus luteus NBRC 3333
[7] = tested on: Aspergillus oryzae NBRC 100959
[8] = tested on: Candida viswanathii NBRC 10321
[9] = tested on: Pseudomonas putida NBRC 100650
[10] = tested on: Micrococcus luteus ATCC 9341
[11] = tested on: Pseudomonas aeruginosa ATCC 9027
[12] = tested on: Staphylococcus aureus ATCC 6538
[13] = tested on: Candida albicans ATCC 36232
Staphylococcus aureus = tested on: Staphylococcus aureus
[14] = tested on: Escherichia coli ATCC 2592
[15] = tested on: Proteus vulgaris ATCC 6380
Klebsiella pneumoniae = tested on: Klebsiella pneumoniae
[16] = tested on: Enterococcus faecium V286-17
[17] = tested on: Staphylococcus aureus MU50
[18] = tested on: Klebsiella pneumoniae E406-17
[19] = tested on: Staphylococcus aureus M838-17
[20] = tested on: Pseudomonas aeruginosa E411-17
[21] = tested on: Staphylococcus aureus USA 300
Escherichia coli E423-17 = tested on: Escherichia coli E423-17
[22] = tested on: Acinetobacter baumannii B28-16
[23] = tested on: Staphylococcus aureus USA 200
[24] = tested on: Staphylococcus aureus Newman
[25] = tested on: Staphylococcus aureus UAMS-1
[26] = tested on: Staphylococcus aureus USA 400
[27] = tested on: Staphylococcus aureus VRSA2
[28] = tested on: Escherichia coli ATCC 25922
[29] = tested on: Staphylococcus aureus VISA1
[30] = tested on: Enterococcus faecium BCRC 15B0132
[31] = tested on: Staphylococcus aureus VRSA1
[32] = tested on: Staphylococcus aureus VISA3
[33] = tested on: Staphylococcus saprophyticus
Proteus mirabilis = tested on: Proteus mirabilis
Klebsiella oxytoca = tested on: Klebsiella oxytoca
[34] = tested on: Staphylococcus haemolyticus
[35] = tested on: Escherichia coli ATCC 35218
Salmonella enterica = tested on: Salmonella enterica
Pseudomonas aeruginosa = tested on: Pseudomonas aeruginosa
[36] = tested on: Staphylococcus epidermidis
Klebsiella aerogenes = tested on: Klebsiella aerogenes
Enterobacter cloacae = tested on: Enterobacter cloacae
Serratia marcescens = tested on: Serratia marcescens
Acinetobacter baumannii = tested on: Acinetobacter baumannii

MIC [1]: 3.12 µM (≈ 12.4 µg/mL)
MIC [2]: 3.12 µM (≈ 12.4 µg/mL)
MIC [3]: 3.12 µM (≈ 12.4 µg/mL)
Compound: CC(C)C[C@H](NC(=O)[C@@H](N)CCCCN)C(=O)N[C@@H](CCCCN)C(=O)N[C@H](C(=O)N[C@@H](Cc1c[nH]c2ccccc12)C(=O)N1CCC[C@H]1C(=O)N[C@@H](CCCCN)C(=O)N[C@@H](CC(N)=O)C(=O)N[C@@H](Cc1ccc(O)cc1)C(=O)N[C@@H](Cc1c[nH]c2ccccc12)C(=O)N[C@@H](CCCN=C(N)N)C(=O)N[C@@H](CCCCN)C(=O)N[C@H](C(=O)N[C@@H](Cc1c[nH]c2ccccc12)C(=O)N[C@@H](CO)C(=O)N[C@@H](CCCCN)C(=O)N[C@@H](CCCCN)C(=O)N[C@@H](CC(N)=O)C(=O)N[C@@H](Cc1c[nH]c2ccccc12)C(=O)N[C@@H](CCCN=C(N)N)C(=O)N[C@@H](CCCCN)C(=O)N[C@@H](Cc1ccccc1)C(=O)N[C@H](C(=O)N[C@@H](CCCCN)C(=O)N[C@@H](CCCCN)C(=O)N[C@@H](Cc1ccccc1)C(=O)N[C@@H](CCCCN)C(=O)N[C@@H](Cc1cnc[nH]1)C(=O)N[C@@H](Cc1c[nH]c2ccccc12)C(=O)O)C(C)C)C(C)C)[C@@H](C)O [KLKTWPKNYWRKVWSKKNWRKFVKKFKHW]

MIC [10]: ≥ 83.3 µM
MIC [11]: 83.3 µM (≈ 99.9 µg/mL)
MIC [12]: > 83.3 µM
MIC [13]: ≥ 83.3 µM
MIC (Staphylococcus aureus): > 83.3 µM
MIC [14]: ≥ 83.3 µM
MIC [15]: ≥ 83.3 µM
Compound: CC(C)[C@H](NC(=O)[C@H](CCCCN)NC(=O)[C@@H]1CCCN1C(=O)[C@@H](NC(=O)[C@@H](NC(=O)[C@H](CCCCN)NC(=O)[C@@H](N)CCCCN)C(C)C)C(C)C)C(=O)N[C@@H](CCCCN)C(=O)N[C@@H](Cc1ccccc1)C(=O)N[C@@H](CCCCN)C(N)=O [KKVVPKVKFK]

More lines, now with the values behind:

Compound: CC[C@H](C)[C@H](NC(=O)[C@H](CCCCN)NC(=O)[C@H](CCCN=C(N)N)NC(=O)[C@H](CCC(=O)O)NC(=O)[C@H](CCC(=O)O)NC(=O)[C@H](CCSC)NC(=O)[C@@H](NC(=O)[C@H](CC(N)=O)NC(=O)[C@@H](N)CO)C(C)C)C(=O)N[C@@H](CCCCN)C(=O)N[C@H](C(=O)N[C@@H](Cc1ccc(O)cc1)C(=O)N[C@@H](CC(C)C)C(=O)N1CCC[C@H]1C(=O)N[C@@H](CCCN=C(N)N)C(=O)N[C@@H](CCSC)C(=O)N[C@@H](CCCCN)C(=O)N[C@@H](CCSC)C(=O)N[C@@H](CCC(=O)O)C(=O)N[C@@H](CCC(=O)O)C(=O)O)C(C)C [SNVMEERKIKVYLPRMKMEE]
MIC [4]: ≥ 319 µM
MIC [5]: ≥ 319 µM
MIC [6]: ≥ 319 µM
MIC [7]: ≥ 319 µM
MIC [8]: ≥ 319 µM
MIC [9]: ≥ 319 µM

Compound: CC(C)[C@H](NC(=O)[C@H](Cc1c[nH]c2ccccc12)NC(=O)[C@H](Cc1c[nH]c2ccccc12)NC(=O)[C@H](Cc1c[nH]c2ccccc12)NC(=O)[C@H](Cc1c[nH]c2ccccc12)NC(=O)[C@H](CCCN=C(N)N)NC(=O)[C@H](CCCN=C(N)N)NC(=O)[C@@H](N)CCCN=C(N)N)C(N)=O [RRRWWWWV]
MIC (Klebsiella pneumoniae): 11.3 µM (≈ 15 µg/mL)
MIC [16]: 2 µM (≈ 2.66 µg/mL)
MIC [17]: 8 µM (≈ 10.6 µg/mL)
MIC [18]: 11.3 µM (≈ 15 µg/mL)
MIC [19]: 3.1 µM (≈ 4.12 µg/mL)
MIC [20]: 5.66 µM (≈ 7.52 µg/mL)
MIC [21]: 2.83 µM (≈ 3.76 µg/mL)
MIC (Escherichia coli E423-17): 2 µM (≈ 2.66 µg/mL)
MIC [22]: 8 µM (≈ 10.6 µg/mL)
MIC (Staphylococcus aureus): 4 µM (≈ 5.32 µg/mL)
MIC [23]: 4 µM (≈ 5.32 µg/mL)
MIC [24]: 4 µM (≈ 5.32 µg/mL)
MIC [25]: 4 µM (≈ 5.32 µg/mL)
MIC [26]: 4 µM (≈ 5.32 µg/mL)

Compound: CC(=O)N[C@@H](C)C(=O)N[C@@H](CCCCN)C(=O)N[C@@H](CCCN=C(N)N)C(=O)N[C@@H](Cc1ccccc1)C(=O)N[C@@H](Cc1ccccc1)C(=O)NCC(=O)N[C@@H](Cc1ccc(O)cc1)C(=O)N[C@@H](CCCCN)C(=O)N[C@@H](CCCN=C(N)N)C(=O)N[C@@H](CCCCN)C(=O)N[C@@H](Cc1ccccc1)C(=O)N[C@@H](Cc1ccccc1)C(N)=O [AKRFFGYKRKFF]
MIC [27]: ≥ 40.1 µM
MIC [28]: 40.1 µM (≈ 65.6 µg/mL)
MIC [29]: ≥ 40.1 µM
MIC [30]: ≥ 40.1 µM
MIC [31]: ≥ 40.1 µM
MIC [32]: ≥ 40.1 µM

Compound: CC[C@H](C)[C@H](NC(=O)[C@H](CCCCN)NC(=O)[C@H](C)NC(=O)[C@H](CC(C)C)NC(=O)[C@H](Cc1ccccc1)NC(=O)[C@H](CCCN=C(N)N)NC(=O)[C@H](C)NC(=O)[C@H](Cc1ccc(O)cc1)NC(=O)[C@H](CCCN=C(N)N)NC(=O)[C@H](Cc1cnc[nH]1)NC(=O)[C@H](Cc1ccccc1)NC(=O)[C@H](Cc1ccc(O)cc1)NC(=O)[C@H](CCCN=C(N)N)NC(=O)[C@H](CCC(N)=O)NC(=O)[C@@H](N)Cc1ccccc1)C(=O)N[C@@H](Cc1c[nH]c2ccccc12)C(=O)N[C@@H](CCCCN)C(=O)NCC(=O)O [FQRYFHRYARFLAKIWKG]
MIC [33]: 10 µM (≈ 23.9 µg/mL)
MIC (Klebsiella pneumoniae): 1.4 µM (≈ 3.34 µg/mL)
MIC (Proteus mirabilis): 10 µM (≈ 23.9 µg/mL)
MIC (Klebsiella oxytoca): 3.6 µM (≈ 8.6 µg/mL)
MIC [34]: 10 µM (≈ 23.9 µg/mL)
MIC [35]: 0.9 µM (≈ 2.15 µg/mL)
MIC (Salmonella enterica): 10 µM (≈ 23.9 µg/mL)
MIC (Pseudomonas aeruginosa): 2.8 µM (≈ 6.69 µg/mL)
MIC [36]: 10 µM (≈ 23.9 µg/mL)
MIC (Klebsiella aerogenes): 10 µM (≈ 23.9 µg/mL)
MIC (Enterobacter cloacae): 10 µM (≈ 23.9 µg/mL)
MIC (Serratia marcescens): 10 µM (≈ 23.9 µg/mL)
MIC (Staphylococcus aureus): 1.8 µM (≈ 4.3 µg/mL)
MIC (Acinetobacter baumannii): 10 µM (≈ 23.9 µg/mL)
